Experimental data as given in ChEMBL document CHEMBL1782000, “Thiazole-based chalcones as potent antimicrobial agents. Synthesis and biological evaluation” (2011).

Key:
Staphylococcus aureus [1] = assay: Antibacterial activity against Staphylococcus aureus ATCC 6538 after 24 hrs by microdilution method; type: functional; conditions: ATCC 6538, 24 h
Bacillus cereus [2] = assay: Antibacterial activity against Bacillus cereus clinical isolate after 24 hrs by microdilution method; type: functional
Micrococcus flavus [3] = assay: Antibacterial activity against Micrococcus flavus ATCC 10240 after 24 hrs by microdilution method; type: functional; conditions: ATCC 10240, 24 h
Listeria monocytogenes [4] = assay: Antibacterial activity against Listeria monocytogenes NCTC 7973 after 24 hrs by microdilution method; type: functional; conditions: NCTC 7973, 24 h
Pseudomonas aeruginosa [5] = assay: Antibacterial activity against Pseudomonas aeruginosa ATCC 27853 after 24 hrs by microdilution method; type: functional; conditions: ATCC 27853, 24 h
Salmonella typhimurium [6] = assay: Antibacterial activity against Salmonella Typhimurium ATCC 13311 after 24 hrs by microdilution method; type: functional, Salmonella enterica subsp. enterica serovar Typhimurium; conditions: Salmonella enterica, ATCC 13311, 24 h
Escherichia coli [7] = assay: Antibacterial activity against Escherichia coli ATCC 35210 after 24 hrs by microdilution method; type: functional; conditions: ATCC 35210, 24 h
Enterococcus faecalis [8] = assay: Antibacterial activity against Enterococcus faecalis isolate obtained from human after 24 hrs by microdilution method; type: functional
Staphylococcus aureus [9] = assay: Bactericidal activity against Staphylococcus aureus ATCC 6538 after 24 hrs; type: functional; conditions: ATCC 6538, 24 h
Bacillus cereus [10] = assay: Bactericidal activity against Bacillus cereus clinical isolate after 24 hrs; type: functional
Micrococcus flavus [11] = assay: Bactericidal activity against Micrococcus flavus ATCC 10240 after 24 hrs; type: functional; conditions: ATCC 10240, 24 h
Listeria monocytogenes [12] = assay: Bactericidal activity against Listeria monocytogenes NCTC 7973 after 24 hrs; type: functional; conditions: NCTC 7973, 24 h
Pseudomonas aeruginosa [13] = assay: Bactericidal activity against Pseudomonas aeruginosa ATCC 27853 after 24 hrs; type: functional; conditions: ATCC 27853, 24 h
Salmonella typhimurium [14] = assay: Bactericidal activity against Salmonella Typhimurium ATCC 13311 after 24 hrs; type: functional, Salmonella enterica subsp. enterica serovar Typhimurium; conditions: Salmonella enterica, ATCC 13311, 24 h
Escherichia coli [15] = assay: Bactericidal activity against Escherichia coli ATCC 35210 after 24 hrs; type: functional; conditions: ATCC 35210, 24 h
Enterococcus faecalis [16] = assay: Bactericidal activity against Enterococcus faecalis isolate obtained from human after 24 hrs; type: functional
Aspergillus ochraceus [17] = assay: Antifungal activity against Aspergillus ochraceus ATCC 12066 after 72 hrs by serial dilution method; type: functional; conditions: ATCC 12066, 72 h
Aspergillus versicolor [18] = assay: Antifungal activity against Aspergillus versicolor ATCC 11730 after 72 hrs by serial dilution method; type: functional; conditions: ATCC 11730, 72 h
Aspergillus niger [19] = assay: Antifungal activity against Aspergillus niger ATCC 6275 after 72 hrs by serial dilution method; type: functional; conditions: ATCC 6275, 72 h
Aspergillus fumigatus [20] = assay: Antifungal activity against Aspergillus fumigatus plant isolate after 72 hrs by serial dilution method; type: functional
Trichoderma viride [21] = assay: Antifungal activity against Trichoderma viride IAM 5061 after 72 hrs by serial dilution method; type: functional; conditions: IAM 5061, 72 h
Penicillium ochrochloron [22] = assay: Antifungal activity against Penicillium ochrochloron ATCC 9112 after 72 hrs by serial dilution method; type: functional; conditions: ATCC 9112, 72 h
Talaromyces funiculosus [23] = assay: Antifungal activity against Penicillium funiculosum ATCC 36839 after 72 hrs by serial dilution method; type: functional; conditions: ATCC 36839, 72 h
[24] = Antifungal activity against Fusarium sporotrichioides IMT 496 after 72 hrs by serial dilution method; type: functional
Aspergillus ochraceus [25] = assay: Fungicidal activity against Aspergillus ochraceus ATCC 12066 after 72 hrs; type: functional; conditions: ATCC 12066, 72 h
Aspergillus versicolor [26] = assay: Fungicidal activity against Aspergillus versicolor ATCC 11730 after 72 hrs; type: functional; conditions: ATCC 11730, 72 h
Aspergillus niger [27] = assay: Fungicidal activity against Aspergillus niger ATCC 6275 after 72 hrs; type: functional; conditions: ATCC 6275, 72 h
Aspergillus fumigatus [28] = assay: Fungicidal activity against Aspergillus fumigatus plant isolate after 72 hrs; type: functional
Trichoderma viride [29] = assay: Fungicidal activity against Trichoderma viride IAM 5061 after 72 hrs; type: functional; conditions: IAM 5061, 72 h
Penicillium ochrochloron [30] = assay: Fungicidal activity against Penicillium ochrochloron ATCC 9112 after 72 hrs; type: functional; conditions: ATCC 9112, 72 h
Talaromyces funiculosus [31] = assay: Fungicidal activity against Penicillium funiculosum ATCC 36839 after 72 hrs; type: functional; conditions: ATCC 36839, 72 h
[32] = test system: Fusarium sporotrichioides; assay: Fungicidal activity against Fusarium sporotrichioides IMT 496 after 72 hrs; type: functional; conditions: IMT 496, 72 h
Enterococcus faecalis [33] = assay: Ratio of Ampicillin MIC to compound MIC for Enterococcus faecalis after 24 hrs; type: functional

CNc1nc(C)c(C(=O)/C=C/c2ccccc2Cl)s1
3: Ratio (Enterococcus faecalis [33])
229 µM: MIC (Bacillus cereus [2]) | MIC (Micrococcus flavus [3]) | MIC (Escherichia coli [7])
76.4 µM: MIC (Enterococcus faecalis [8])
260 µM: MIC (Pseudomonas aeruginosa [5]) | MBC (Micrococcus flavus [11])
15.3: MIC (10'-2 umol/ml) [24]
153 µM: MBC (Enterococcus faecalis [16]) | MIC (Aspergillus versicolor [18]) | MIC (Trichoderma viride [21])
612 µM: MFC (Aspergillus niger [27]) | MFC (Aspergillus fumigatus [28]) | MFC (Talaromyces funiculosus [31])
306 µM: MIC (Staphylococcus aureus [1]) | MIC (Listeria monocytogenes [4]) | MIC (Salmonella typhimurium [6]) | MBC (Bacillus cereus [10]) | MBC (Pseudomonas aeruginosa [13]) | MBC (Escherichia coli [15]) | MIC (Aspergillus ochraceus [17]) | MIC (Aspergillus niger [19]) | MIC (Aspergillus fumigatus [20]) | MIC (Penicillium ochrochloron [22]) | MIC (Talaromyces funiculosus [23]) | MFC (Trichoderma viride [29])
459 µM: MBC (Staphylococcus aureus [9]) | MBC (Listeria monocytogenes [12]) | MBC (Salmonella typhimurium [14]) | MFC (Aspergillus ochraceus [25]) | MFC (Aspergillus versicolor [26]) | MFC (Penicillium ochrochloron [30]) | MFC [32]
